Test results: patent US20150132342A1, “NOVEL IMMUNE ACTIVATORS: SUBSTITUTE 4-AMINOQUINAZOLINES” (The Regents of the University of California, priority 2013, published 2015)

Key:
Format in all cases: cell-based
TLR4/MD-2/CD14 = molecular target: T1, TLR4/MD-2/CD14 (Homo sapiens, UniProt O00206+Q9Y6Y9); assay: hTLR4 HEK Blue reporter cells, NF-κB SEAP secretion (QuantiBlue OD630)
T1 construct: host or cells: HEK293 (HEK Blue hTLR4)
Protocol: In vitro assays using TLR reporter cell lines. Murine or humanTLR4 HEK Blue™ cells (Invivogen, 2.5×10^4 cells per well of a 96 well plate), or NF-κB/SEAPorter™ HEK 293 cells (Imgenex, San Diego, Calif.) for human TLR2, TLR3, TLR5, TLR7, TLR8, or TLR9 (5×10^4 cells per well of 96 well plate) were incubated with graded doses of the test compound. The culture supernatants were harvested after a 20-24 h incubation period. Secreted alkaline phosphatase (SEAP) activity in the supernatants was determined by a colorimetric assay, using either the SEAPorter Assay Kit (Imgenex, San Diego, Calif.), with absorbance read at 405 nm, or QuantiBlue (Invivogen), with absorbance read at 630 nm. In some experiments, graded concentrations of LPS-RS ([…], Invivogen) were used to test TLR4-specific binding of the hit compound.

HepG2 cells = assay: MTT assay in HepG2 cells; conditions: compounds tested at 10 μM; normalized with OD570-650 of vehicle treatment; in % (unit assumed)
human TLR4/MD-2 = molecular target: T2, human TLR4/MD-2 (Homo sapiens, UniProt O00206+Q9Y6Y9); assay: BMDM from transgenic mice expressing human TLR4/MD-2 (IL-6, IP-10); conditions: BMDM from human TLR4/MD-2 transgenic mice deficient for murine TLR4/MD-2
T2 construct: expressed in transfected cells; host or cells: bone marrow derived macrophages of human TLR4 transgenic mice on a murine TLR4/MD-2 null C57BL/6 background (gift of Dr. L. Hajjar)
Text: Animals. Seven to 9 week-old C57BL/6 (wild type, WT) and Cd14^−/− (C57BL/6 background) mice were purchased from the Jackson Laboratories (Bar Harbor, Mass.). Tlr4^−/− mice (C57BL/6 background) were a gift from Dr. Shizuo Akira (Osaka University, Japan) and were backcrossed for 10 generations onto the C57BL/6 background at University of California, San Diego (UCSD). MD-2^−/− mice (C57BL/6 background) were originally generated by Dr. K. Miyake (University of Tokyo, Tokyo, Japan) and were kindly provided by Dr. L. Hajjar (University of Washington, Seattle, Wash.). Human TLR4 transgenic mice on murine TLR4/MD-2 null C57BL/6 background were kindly provided by Dr. L. Hajjar.^3 All animal experiments were approved by the UCSD Institutional Animal Care and Use Committee.
In vitro cytokine induction in bone marrow derived dendritic cells (BMDC) and macrophages (BMDM). […] The levels of IL-6 or IP-10 in the culture supernatants were determined by ELISA (BD Biosciences, La Jolla, Calif.).^5 Finally, all levels of cytokine release were normalized to those of LPSstimulation within each experiment, set at 100.

human PBMC = assay: IL-8 release in human PBMC (ELISA); conditions: Homo sapiens, PBMC, 18 h; 0.5 μM; IL-8 release, normalized to LPS positive control=100
Protocol: In vitro activities in human peripheral blood mononuclear cells (PBMC). Human PBMC were isolated from buffy coats obtained from the San Diego Blood Bank (San Diego, Calif.) as described previously.^5,6 PBMC (1×10^6/mL) were incubated with various compounds in complete RPMI (Omega Scientific) for 18 h at 37° C., 5% CO2 and culture supernatants were collected. The levels of IL-8 in the supernatants were determined by ELISA (BD Biosciences).

T1 sequence (O00206 24-839): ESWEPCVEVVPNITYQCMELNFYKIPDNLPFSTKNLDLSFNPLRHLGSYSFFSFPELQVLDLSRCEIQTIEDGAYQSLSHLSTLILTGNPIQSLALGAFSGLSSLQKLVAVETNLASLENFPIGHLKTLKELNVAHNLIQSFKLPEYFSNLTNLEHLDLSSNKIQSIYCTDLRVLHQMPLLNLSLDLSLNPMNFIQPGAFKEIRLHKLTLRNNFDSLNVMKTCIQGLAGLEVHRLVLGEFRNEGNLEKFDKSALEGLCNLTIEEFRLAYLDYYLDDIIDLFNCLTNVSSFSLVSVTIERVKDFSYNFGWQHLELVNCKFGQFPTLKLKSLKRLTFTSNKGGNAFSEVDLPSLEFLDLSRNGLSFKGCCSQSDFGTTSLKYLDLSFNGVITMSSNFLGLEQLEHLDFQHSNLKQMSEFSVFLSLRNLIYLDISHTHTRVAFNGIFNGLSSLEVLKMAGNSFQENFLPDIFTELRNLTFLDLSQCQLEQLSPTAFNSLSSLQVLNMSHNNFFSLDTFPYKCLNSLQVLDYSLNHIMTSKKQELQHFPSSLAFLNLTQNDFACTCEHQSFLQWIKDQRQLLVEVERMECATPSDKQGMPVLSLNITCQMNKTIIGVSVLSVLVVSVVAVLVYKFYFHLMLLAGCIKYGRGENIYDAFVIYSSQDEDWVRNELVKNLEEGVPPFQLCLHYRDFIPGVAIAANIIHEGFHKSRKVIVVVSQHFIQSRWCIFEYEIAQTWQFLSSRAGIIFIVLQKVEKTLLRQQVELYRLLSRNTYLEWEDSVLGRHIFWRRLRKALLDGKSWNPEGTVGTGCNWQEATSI
T1 sequence (Q9Y6Y9 19-160): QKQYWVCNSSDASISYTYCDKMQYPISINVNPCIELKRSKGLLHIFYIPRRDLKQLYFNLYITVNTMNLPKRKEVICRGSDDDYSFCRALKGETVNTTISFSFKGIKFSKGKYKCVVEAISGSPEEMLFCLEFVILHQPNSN
T2 sequence (O00206 24-839): as the sequence (O00206 24-839) above
T2 sequence (Q9Y6Y9 19-160): as the sequence (Q9Y6Y9 19-160) above

In the case of CCOC(=O)c1nc(Nc2cc(Oc3ccccc3Br)cc([N+](=O)[O-])c2)c2ccccc2n1 [Compound 1g, Ethyl 4-((3-(2-bromophenoxy)-5-nitrophenyl)amino)quinazoline-2-carboxylate], the “hTLR4 0.5 μM” value (TLR4/MD-2/CD14; 0.5 μM, Quantiblue OD630 of hTLR4 HEK Blue cells, normalized to LPS positive control=100) was 79.0, the “Activity relative to compound 1a (SAR in words)” value (TLR4/MD-2/CD14; TLR4 reporter cells and hPBMC) was “enhanced” and the “HepG2 MT” value (HepG2 cells) was 90.8. For the same compound, the “Activation of transgenic human TLR4/MD-2 complex relative to mouse TLR4/MD-2” value (human TLR4/MD-2) was “to a greater extent” and the IL-8 release (% of LPS control) at 0.5 µM (human PBMC) was 35.6%.
